From patent US20200268864A1, “CANCER VACCINE COMPOSITIONS AND METHODS FOR USING SAME TO TREAT CANCER” (Dana-Farber Cancer Institute, Inc., priority 2017, published 2020) come the findings set out here.

Entries after “also recorded” stand apart in the source; their conditions may differ. Residues, ends and D or L forms follow the SMILES beside them. *: point of attachment. Cbz = O=C(OCc1ccccc1)*; CH2F = FC*

For test [1], the system named is PBM tumors (Trp53−/−; Brca1−/−; c-Myc). Kind of test: Orthotopic PBM tumor allograft growth and survival (bioluminescence). The note with it: PBM tumors; agent given together with olaparib. Type of test: in vivo, mouse. As to the method: All animal experiments described in this study were performed according to the animal protocols approved by the DFCI Institutional Animal Care and Use Committee. Brca1^loxP/loxP [FVB/N] mice, bearing loxP sites in introns 4 and 13 of the Brca1 gene, and Trp53^loxP/loxP[FVB/N] mice bearing loxP in introns 2 and 10 of the p53 gene, were obtained from Dr. Jos Jonkers's laboratory (Netherlands Cancer Institute, Amsterdam, The Netherlands). These mice were intercrossed through multiple generations to create a colony of homozygous Trp53^loxP/loxP/Brca1^loxP/loxP double conditional knockout mice. Ovaries were harvested from 8-week-old female Trp53^loxP/loxP/Brca1^loxP/loxP mice. The ovaries were washed twice with phosphate-buffered and incubated in DMEM/F12 (Ham's) medium containing collagenase and dispase (stem cell technologies) for 40 min at 37° C. The epithelial cells were pelleted by centrifugation at 800×g and cultured in DMEM/F12 (Life Technologies) supplemented with 4% (vol/vol) FBS, 1% penicillin/streptomycin, 10 ng/mL EGF, 5 μg/mL insulin, 5 Cpg/mL transferrin, and 5 ng/mL sodium selenite. Ovarian surface epithelial (OSE) cells were cultured for 48 hr and then introduced with Adeno-Cre (University of Iowa) and lentiviruses expressing C-Myc gene (Addgene #36980) or control GFP. After two days of infection in vitro, OSE cells are aggregated and implanted into recipient mice. About 5×10^5 OSE cells (Trp53^−/−; Brca1^−/−; c-Myc) were injected into the right ovarian bursal cavities of 6- to 7-week-old female nude mice. In each mouse, the left ovarian bursa was injected with GFP-expressing OSE cells (Trp53^−/−; Brca1^−/−; GFP). PBM (Trp53^−/−; Brca1^−/−; c-Myc) ovarian tumors developed within three to six months after implantation of the genetically engineered OSE cells. The primary ovarian tumors were digested and orthotopically transplanted to FVB/NJ mice. The PPM GEM model (Trp53^−/−; Pten^−/−; c-Myc) was developed with OSE cells isolated from homozygous Trp53^loxP/loxP/Pten^loxP/loxP(FVB/NJ) double conditional knockout mice using the same strategy for generation of the PBM GEM model described above. For histological analysis, tumor pieces were fixed in 10% Formalin overnight and transferred to 70% ethanol. Embedding, sectioning and H&E staining was performed by scientists at the Harvard rodent histopathology core facility. The histological characteristics of high grade ovarian tumor were confirmed by two independent pathologists at Harvard Medical School.
Single cells were obtained by digestion of primary ovarian tumors in collagenase buffer and then cultured in MOT media (DMEM/F12, 0.6% FBS, 10 ng/ml EGF, hydrocortisone 1 μg/ml, cholera toxin 1 ng/ml, 100 μg/ml penicillin-streptomycin, 5 μM Y27632). […] The endpoints were determined by tumor burden and ascites. […]

Test [2] deals with STING pathway in BMDCs co-cultured with PBM cells. Kind of test: Co-culture of BMDCs with olaparib-treated PBM tumor cells. In kind it is cell-based, mouse. Here is the method:
(§1) Blood was obtained by retro-orbital sampling at intermediate time points or experimental end points. Blood cells and plasma/sera were separated by centrifugation at 1,500×g for 5 min. at 4° C. Plasmaisera were sent out to Eve Technologies for cytokine array analysis (Chemokine Array 31-Plex and Mouse Procarta IFN 2-plex Featured Assay). Plasma/sera were applied to ELISA according to manufacturer's instructions. For in vitro experiments, cell culture supernatants were obtained by centrifugation at 1,500×g for 5 min. at 4° C. to remove all debris and cells, and were then subjected to ELISA analysis. IFN-β was detected using the LEGEND MAX™ Mouse IFN-β ELISA Kit (BioLegend).
Bone marrow cells were isolated from FVB/NJ mice and cultured in RPMI-1640 containing 10% FBS and 20 ng/ml GM-CSF. BMDCs (bone marrow derived dendritic cells) were harvested for in vitro co-culture assay on day 7 to day 10. About 3×10^5 PBM or PPM tumor cells were cultured in a 6-well plate for 24 hr. and then treated with DMSO or olaparib. After 24 hr incubation with DMSO, olaparib, or olaparib in combination with other drugs (cell cycle inhibitor or apoptosis inhibitor), drugs were removed and tumor cells were washed twice with PBS. BMDCs were added and co-cultured with PBM or PPM cells at a ratio of 1:1 in 1.5 ml culture media in the presence of GM-CSF (20 ng/ml) and lipofectamine (2 μl) for 24 hr. Co-cultured cells were harvested for flow cytometry analysis and floating cells (percentage of BMDCs is about 90%), or RNA analysis. Cell culture supernatants were collected for detection of IFN-β with the ELISA kit. BMDCs generated from C57BL/6J mice were applied for the coculture of BMDCs with ID8 tumor cells. Human dendritic cells purchased from Lonza were used for the coculture of human DCs with DMSO or olaparib-treated human ovarian cancer cells ([…] and UWB1.289+BRCA1).
(§2) About 50 to 100 mg of tumor samples were homogenized in 1 ml of TRIzol™ Reagent supplied with 200 μl of stainless steel beads and 0.2 ml of chloroform was added to the samples. Samples were vortexed vigorously for 15 seconds and then incubated at room temperature for 2 to 3 minutes. After centrifugation at 12,000×g for 15 minutes at 4° C., upper aqueous phase of the samples was carefully removed to a new tube and the total RNA was purified using an RNeasy® Mini Kit (Qiagen) according to manufactory's instruction. For the in vitro cultured cell samples, total RNA was isolated using an RNeasy® Mini Kit. The qPCR was performed on an Applied Biosystems 7300 machine after the total RNA was reverse transcribed to cDNA using the SuperScript® III First-Strand Synthesis System (Invitrogen). Primers used for qPCR were as follows: […]

In a further test the test system is STING signaling in BMDCs. Kind of test: BMDCs stimulated with STING agonist DMXAA. In kind it is cell-based, mouse. As to the method: as §1, §2
Test [3] has as its system Brca1-proficient and Brca1-deficient tumor cells. Kind of test: Measurement of IC50 value in tumor cells (MTS, 72 h). The note with it: three pairs of models; for gemcitabine except PPM and PBM cells. In kind it is cell-based. Here is the method: Tumor cells were seeded in 96-well plates at a density of 1000-3000/well and allowed to adhere overnight. Cells were then exposed to appropriate concentrations of therapeutic agents (or vehicle control) with continuous exposure for 72 h. Growth inhibition was measured by CellTiter Aqueous MTS reagent from Promega by comparing the absorbance at 490 nm of drug-treated cells to that of untreated controls set at 100%. 1C50 values were calculated using non-linear regression model (logarithmic inhibitor vs. normalized response-variable slope) in Graphpad Prism 7.

Test [4] concerns STING pathway in BMDCs co-cultured with ID8 cells. Kind of test: Co-culture of BMDCs with drug-treated WT or Brca1-null ID8 cells. To be noted: co-cultured with both Brca1-deficient and Brca1 proficient ID8 cells. In kind it is cell-based, mouse. As to the method: Brca-1 deficient ID8 cells were generated using a CRISPR double nickase plasmid. ID8 cells cultured in a 6-well plate were transfected with 2 μg/well of BRCA1 double nickase plasmid (sc419362-NIC, Santa Cruz Biotechnology) or control double nickase plasmid (SC-437281, Santa Cruz Biotechnology) using lipofectamine 3000 (Invitrogen). 48 hrs post-transfection, cells were passaged onto a 10 cm plate. After 24 h, puromycin (3 μg/mL) was added to the culture for selection. Puromycin resistant cells were selected and expanded. Due to a lack of a reliable mouse BRCA1 antibody for Western blot, cells were analyzed by DNA sequencing to confirm the disruption of functional Brca1 allele. To generate ID8 tumors, cultured ID8 cells were harvested and resuspended in serum free DMEM. Cells were then mixed with Matrigel (Corning). A total volume of 0.1 ml containing 5×10^6 ID8 cells and 40% Matrigel were injected subcutaneously into the flank of C57BL/6J mice.
Bone marrow cells were isolated from FVB/NJ mice and cultured in RPMI-1640 containing 10% FBS and 20 ng/ml GM-CSF. BMDCs (bone marrow derived dendritic cells) were harvested for in vitro co-culture assay on day 7 to day 10. About 3×10^5 PBM or PPM tumor cells were cultured in a 6-well plate for 24 hr. and then treated with DMSO or olaparib. […]

In the case of `O=C(NCCCNc1nc(Nc2cccc(NC(=O)N3CCCC3)c2)ncc1I)c1cccs1` [BX795], the “effect of added agent on olaparib-induced tumor inhibition / antitumor activity of olaparib” value in test [1] is recorded as “blocked the anti-tumor activity of olaparib; also recorded: attenuated”. In addition, in test [2] (agent added to the co-culture), the “effect on olaparib-induced IFNβ/CXCL10 expression and STING activation in co-cultured DCs” value is listed as “abrogated”; the “effect on olaparib-induced phosphorylation of TBK1 in CD11c dendritic cells” value was “reduced”. Also, the “effect on DMXAA-induced IFN-β production from BMDCs” value with STING signaling in BMDCs (BX795 2 μM, 2 h) is “abolished”.
`Cc1ccc2c(=O)c3cccc(CC(=O)O)c3oc2c1C` [DMXAA, 5,6-dimethylxanthenone-4-acetic acid]: the “IFN-β production from BMDCs in culture” value in the test with STING signaling in BMDCs (DMXAA 5 μg/ml, 2 h) was “strong IFN-β production”. Also, the “STING signaling in BMDCs” value in the test with STING signaling in BMDCs (Western blot) is listed as “activation of the STING signaling”.
For the compound `Nc1ccn([C@@H]2O[C@H](CO)[C@@H](O)C2(F)F)c(=O)n1` [gemcitabine], the “IC50 values, Brca1-deficient lines in comparison to Brca1-proficient counterparts” value (“IC50 values, Brca1-deficient lines” for short) in test [3] is on record as “no substantial differences”.
Regarding `CC(=O)O[C@H]1C(=O)[C@@]2(C)[C@H]([C@H](OC(=O)c3ccccc3)[C@]3(O)C[C@H](OC(=O)[C@H](O)[C@@H](NC(=O)c4ccccc4)c4ccccc4)C(C)=C1C3(C)C)[C@]1(OC(C)=O)CO[C@@H]1C[C@@H]2O` [paclitaxel], in test [4], the “phosphorylation of TBK1 and IRF3 in BMDCs” value was “increased”. The “IC50 values, Brca1-deficient lines” value in test [3] is given as “no substantial differences”.
For the compound `Cn1ncnc1[C@H]1c2n[nH]c(=O)c3cc(F)cc(c23)N[C@@H]1c1ccc(F)cc1` [talazoparib], the “IC50 values, Brca1-deficient lines” value in test [3] is listed as “much more sensitive”.
With `CC(NC(=O)C(NC(=O)OCc1ccccc1)C(C)C)C(=O)NC(CC(=O)O)C(=O)CF` (stereo not drawn) [zVAD] (Cbz-Val-Ala-Asp-CH2F; configuration not given here), the “effect of apoptosis inhibitor on activation of DCs co-cultured with olaparib-treated PBM cells” value in test [2] (zVAD 10 μM with olaparib 2.5 μM, 24 h pre-treatment) is “little effect”.
